System: Hydroxyapatite
Test: Binding affinity to hydroxyapatite at 10 nM by UV-spectroscopy relative to tetracycline

Row | SMILES | RBA [%]
1 | C[C@]12CC[C@@H]3c4ccc(O)cc4CC[C@H]3[C@@H]1CC[C@@H]2O | 0
2 | CCCCOP(=O)(OCCCC)Oc1ccc2c(c1)CC[C@@H]1[C@@H]2CC[C@]2(C)[C@@H](OCCC(=O)Nc3ccc(OC)c(C(N)=O)c3O)CC[C@@H]12 | 100
3 | CN(C)[C@@H]1C(O)=C(C(N)=O)C(=O)[C@@]2(O)C(O)=C3C(=O)c4c(O)cccc4[C@@](C)(O)[C@H]3C[C@@H]12 | 100
4 | CCCCCCCCCCCCOP(=O)(OCCCCCCCCCCCC)Oc1ccc2c(c1)CC[C@@H]1[C@@H]2CC[C@]2(C)[C@@H](OCCC(=O)Nc3ccc(OC)c(C(N)=O)c3O)CC[C@@H]12 | 160
5 | CCCCC(CC)COP(=O)(OCC(CC)CCCC)Oc1ccc2c(c1)CC[C@@H]1[C@@H]2CC[C@]2(C)[C@@H](OCCC(=O)Nc3ccc(OC)c(C(N)=O)c3O)CC[C@@H]12 (stereo partly drawn) | 180
6 | COc1ccc(NC(=O)CCO[C@H]2CC[C@H]3[C@@H]4CCc5cc(OP(=O)(OCc6ccccc6)OCc6ccccc6)ccc5[C@H]4CC[C@]23C)c(O)c1C(N)=O | 190
7 | COc1ccc(NC(=O)CCO[C@H]2CC[C@H]3[C@@H]4CCc5cc(OP(=O)(OC(C)C)OC(C)C)ccc5[C@H]4CC[C@]23C)c(O)c1C(N)=O | 200
8 | COc1ccc(NC(=O)CCO[C@H]2CC[C@H]3[C@@H]4CCc5cc(OP(=O)(OCC(C)C)OCC(C)C)ccc5[C@H]4CC[C@]23C)c(O)c1C(N)=O | 180
